# Results published in patent US20230203098A1, “HUMAN TRANSFERRIN RECEPTOR BINDING PEPTIDE” (priority 2020, published 2023).
# Where a SMILES comes first, the peptide text is derived from it. Bridges are numbered along the chain shown (N, C = ends). [ ]: non-standard residue; d: D form. PEG12 = NCCOCCOCCOCCOCCOCCOCCOCCOCCOCCOCCOCCOCCC(=O)O; Phe(3-OMe) = COc1cccc(C[C@H](N)C(=O)O)c1; Phe(4-F) = N[C@@H](Cc1ccc(F)cc1)C(=O)O; NMeY = CN[C@@H](Cc1ccc(O)cc1)C(=O)O; NMeF = CN[C@@H](Cc1ccccc1)C(=O)O; Abu = CC[C@H](N)C(=O)O
# Biological target: transferrin receptor (hTfR) (Homo sapiens, UniProt P02786)
# Experiment: Intermolecular interaction evaluation test between transferrin receptor (hTfR) and peptide by surface plasmon resonance (SPR)
# Type: binding
# Settings: SPR; hTfR No. 894 variants with PEG12c linker (Table 2); read-out: KD
# Experimental: For each of the various synthesized peptides, the intermolecular interaction of the peptide with the transferrin receptor (hTfR) was tested by surface plasmon resonance (SPR) according to the following method. The specific test method is as follows.
# An NTA sensor chip (Global Life Sciences Technologies Japan) was inserted in a Biacore T200 (Global Life Sciences Technologies Japan) and a prime operation was performed 3 times with a running buffer: 10 mM HEPES pH 8.0 (Nacalai Tesque), 150 mM NaCl (Nacalai Tesque), 0.05% Tween 20 (Nacalai Tesque), 0.1% BSA (Sigma-Aldrich), 1.0% DMSO (FUJIFILM Wako Pure Chemical) to create an Equilibration state at a flow rate of 30 µL/min. After reacting with 350 mM EDTA solution for 60 seconds at a flow rate of 10 µL/min then reacting with 0.5 mM NiCl2 solution (Kishida Chemical) for 60 seconds at a flow rate of 10 µL/min, the NTA sensor chip was washed with 3 mM EDTA solution (Nacalai Tesque) for 60 seconds at a flow rate of 10 µL/min. After mixing 50 µL each of 60 mM EDC solution (Global Life Sciences Technologies Japan) and 650 mM NHS solution (Global Life Sciences Technologies Japan), the mixture was reacted for 420 seconds at a flow rate of 10 µL/min. By diluting with the running buffer, 150 µL of 3.2 µM hTfR solution was prepared and used for reaction for 600 seconds at a flow rate of 10 µL/min, thereby immobilizing hTfR on the NTA sensor chip. After immobilization, capping was performed by reacting with 1.0 M ethanolamine aqueous solution (Global Life Sciences Technologies Japan) for 420 seconds at a flow rate of 10 µL/min. A peptide dissolution liquid prepared to 10 mM in the DMSO solution was diluted with the running buffer to a final concentration of 10 µM so as to become the peptide dissolution liquid, then peptide solutions of 100 nM, 50 nM, 25 nM, 10 nM and 5 nM were prepared. Kinetics of the peptide to hTfR was acquired by SPR measurement using the above-mentioned samples. Single-cycle kinetics was used as a kinetic evaluation model and curve fitting was performed using Biacore T200 Evaluation Software Version 3.0 (Global Life Sciences Technologies Japan). An obtained sensorgram was subjected to curve fitting using the least-squares method, and the binding of the peptide to hTfR was evaluated by obtaining KD values. […] A chemical structure of hTfR No. 894 is as follows.
# The variant peptides were synthesized according to Example 1 unless otherwise stated in Example 9 or 10. The linker-added peptides were synthesized according to Example 1, except that Fmoc-NH-SAL-PEG resin (Watanabe Chemical Industries) was used as a resin for the peptide synthesis when the linker was PEG. The peptide, to which a peptide, a fatty acid, PEG, or a conjugate thereof is added as a linker, was also synthesized according to Example 1, unless otherwise stated in Example 9 or 10.
# transferrin receptor (hTfR), sequence (P02786 whole entry): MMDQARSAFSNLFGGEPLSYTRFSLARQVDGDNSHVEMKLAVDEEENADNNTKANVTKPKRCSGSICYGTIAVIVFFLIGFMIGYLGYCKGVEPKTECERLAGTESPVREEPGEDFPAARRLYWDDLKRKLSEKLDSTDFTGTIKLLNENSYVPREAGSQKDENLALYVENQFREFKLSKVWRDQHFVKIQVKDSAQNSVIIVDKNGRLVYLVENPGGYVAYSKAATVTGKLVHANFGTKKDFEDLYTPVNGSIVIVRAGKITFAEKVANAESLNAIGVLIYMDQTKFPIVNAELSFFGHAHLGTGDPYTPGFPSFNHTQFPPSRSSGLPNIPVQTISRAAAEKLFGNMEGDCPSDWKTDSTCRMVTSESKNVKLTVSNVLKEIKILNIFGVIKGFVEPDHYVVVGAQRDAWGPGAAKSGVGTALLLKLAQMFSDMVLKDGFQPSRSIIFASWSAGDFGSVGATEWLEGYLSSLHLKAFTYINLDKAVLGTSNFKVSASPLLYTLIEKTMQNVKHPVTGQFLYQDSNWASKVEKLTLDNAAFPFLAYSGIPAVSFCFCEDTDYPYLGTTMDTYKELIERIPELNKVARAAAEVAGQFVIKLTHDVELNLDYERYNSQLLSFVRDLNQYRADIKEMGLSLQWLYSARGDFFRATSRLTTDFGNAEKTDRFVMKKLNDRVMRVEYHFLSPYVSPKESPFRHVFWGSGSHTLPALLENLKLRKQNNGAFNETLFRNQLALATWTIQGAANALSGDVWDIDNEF
row,SMILES,Kd [nM]
1,CC[C@@H]1NC(=O)CSC[C@@H](C(=O)NCCOCCOCCOCCOCCOCCOCCOCCOCCOCCOCCOCCOCCC(N)=O)NC(=O)[C@H](Cc2ccc(O)cc2)N(C)C(=O)[C@H](Cc2ccc(O)cc2)NC(=O)[C@H](CCCNC(=N)N)NC(=O)[C@H](CCCNC(=N)N)NC(=O)[C@H]([C@@H](C)CC)NC(=O)[C@H]([C@@H](C)CC)NC(=O)[C@H](Cc2ccc(O)cc2)NC(=O)[C@H](Cc2ccc(O)cc2)NC(=O)[C@H](CC(N)=O)NC(=O)[C@H](Cc2c[nH]c3ccccc23)NC(=O)[C@H](C(C)C)NC(=O)[C@H](Cc2ccccc2)N(C)C(=O)[C@H](C(C)C)NC1=O [compound 111] ({CH2CO}-[Abu]V[NMeF]VWNYYIIRRY[NMeY]C[PEG12]-NH2; thioether N-15),1 to 100
2,CC[C@H](C)[C@@H]1NC(=O)[C@H](Cc2ccc(O)cc2)NC(=O)[C@H](Cc2ccc(O)cc2)NC(=O)[C@H](CC(N)=O)NC(=O)[C@H](Cc2c[nH]c3ccccc23)NC(=O)[C@H](C(C)C)NC(=O)[C@H](Cc2ccccc2)N(C)C(=O)[C@H](C(C)C)NC(=O)[C@H](C)NC(=O)CSC[C@@H](C(=O)NCCOCCOCCOCCOCCOCCOCCOCCOCCOCCOCCOCCOCCC(N)=O)NC(=O)[C@H](Cc2ccc(O)cc2)N(C)C(=O)[C@H](Cc2ccc(O)cc2)NC(=O)[C@H](CCCNC(=N)N)NC(=O)[C@H](CCCNC(=N)N)N(C)C(=O)[C@H]([C@@H](C)CC)NC1=O [compound 112],1 to 100
3,CC[C@H](C)[C@@H]1NC(=O)[C@H](Cc2ccc(O)cc2)NC(=O)[C@H](Cc2ccc(O)cc2)NC(=O)[C@H](CC(N)=O)NC(=O)[C@H](Cc2cccc(OC)c2)NC(=O)[C@H](C(C)C)NC(=O)[C@H](Cc2ccccc2)N(C)C(=O)[C@H](C(C)C)NC(=O)[C@H](C)NC(=O)CSC[C@@H](C(=O)NCCOCCOCCOCCOCCOCCOCCOCCOCCOCCOCCOCCOCCC(N)=O)NC(=O)[C@H](Cc2ccc(O)cc2)N(C)C(=O)[C@H](Cc2ccc(O)cc2)NC(=O)[C@H](CCCNC(=N)N)NC(=O)[C@H](CCCNC(=N)N)NC(=O)[C@H]([C@@H](C)CC)NC1=O [compound 113] ({CH2CO}-AV[NMeF]V[Phe(3-OMe)]NYYIIRRY[NMeY]C[PEG12]-NH2; thioether N-15),< 1
4,CC[C@H](C)[C@@H]1NC(=O)[C@H](Cc2ccc(O)cc2)NC(=O)[C@H](Cc2ccc(O)cc2)NC(=O)[C@H](CC(N)=O)NC(=O)[C@H](Cc2c[nH]c3ccccc23)NC(=O)[C@H](C(C)C)NC(=O)[C@H](Cc2ccccc2)N(C)C(=O)[C@H](C(C)C)NC(=O)[C@H](C)NC(=O)CSC[C@@H](C(=O)NCCOCCOCCOCCOCCOCCOCCOCCOCCOCCOCCOCCOCCC(N)=O)NC(=O)[C@H](Cc2ccc(O)cc2)N(C)C(=O)[C@H](Cc2ccc(O)cc2)NC(=O)[C@H](CCCNC(=N)N)NC(=O)[C@H](CCCNC(=N)N)NC(=O)[C@H](Cc2ccc(O)cc2)NC1=O [compound 115] ({CH2CO}-AV[NMeF]VWNYYIYRRY[NMeY]C[PEG12]-NH2; thioether N-15),1 to 100
5,CC[C@H](C)[C@@H]1NC(=O)[C@H](Cc2ccc(O)cc2)NC(=O)[C@H](Cc2ccc(O)cc2)NC(=O)[C@H](CC(N)=O)NC(=O)[C@H](Cc2c[nH]c3ccccc23)NC(=O)[C@H](C(C)C)NC(=O)[C@H](Cc2ccccc2)N(C)C(=O)[C@H](C(C)C)NC(=O)[C@H](C)NC(=O)CSC[C@@H](C(=O)NCCOCCOCCOCCOCCOCCOCCOCCOCCOCCOCCOCCOCCC(N)=O)NC(=O)[C@H](Cc2ccc(O)cc2)N(C)C(=O)[C@H](Cc2ccc(O)cc2)NC(=O)[C@@H](CCCNC(=N)N)NC(=O)[C@H](CCCNC(=N)N)NC(=O)[C@H]([C@@H](C)CC)NC1=O [compound 116],1 to 100
6,CC[C@H](C)[C@@H]1NC(=O)[C@H](Cc2ccc(O)cc2)NC(=O)[C@H](Cc2ccc(O)cc2)NC(=O)[C@H](CC(N)=O)NC(=O)[C@H](Cc2c[nH]c3ccccc23)NC(=O)[C@H](C(C)C)NC(=O)[C@H](Cc2ccccc2)N(C)C(=O)[C@H](C(C)C)NC(=O)[C@H](C)NC(=O)CSC[C@@H](C(=O)NCCOCCOCCOCCOCCOCCOCCOCCOCCOCCOCCOCCOCCC(N)=O)NC(=O)[C@H](C)NC(=O)[C@H](Cc2ccc(O)cc2)NC(=O)[C@H](CCCNC(=N)N)NC(=O)[C@H](CCCNC(=N)N)NC(=O)[C@H]([C@@H](C)CC)NC1=O [compound 117] ({CH2CO}-AV[NMeF]VWNYYIIRRYAC[PEG12]-NH2; thioether N-15),1 to 100
7,CC[C@H](C)[C@@H]1NC(=O)[C@H](Cc2ccc(O)cc2)NC(=O)[C@H](Cc2ccc(O)cc2)NC(=O)[C@H](CC(N)=O)NC(=O)[C@H](Cc2ccc(OC)cc2)NC(=O)[C@H](C(C)C)NC(=O)[C@H](Cc2ccccc2)N(C)C(=O)[C@H](C(C)C)NC(=O)[C@H](C)NC(=O)CSC[C@@H](C(=O)NCCOCCOCCOCCOCCOCCOCCOCCOCCOCCOCCOCCOCCC(N)=O)NC(=O)[C@H](Cc2ccc(O)cc2)N(C)C(=O)[C@H](Cc2ccc(O)cc2)NC(=O)[C@H](CCCNC(=N)N)NC(=O)[C@H](CCCNC(=N)N)NC(=O)[C@H]([C@@H](C)CC)NC1=O [compound 118] ({CH2CO}-AV[NMeF]VY(Me)NYYIIRRY[NMeY]C[PEG12]-NH2; thioether N-15),1 to 100
8,CC[C@H](C)[C@@H]1NC(=O)[C@H](Cc2ccc(O)cc2)NC(=O)[C@H](Cc2ccc(O)cc2)NC(=O)[C@H](CC(N)=O)NC(=O)[C@H](Cc2ccc(F)cc2)NC(=O)[C@H](C(C)C)NC(=O)[C@H](Cc2ccccc2)N(C)C(=O)[C@H](C(C)C)NC(=O)[C@H](C)NC(=O)CSC[C@@H](C(=O)NCCOCCOCCOCCOCCOCCOCCOCCOCCOCCOCCOCCOCCC(N)=O)NC(=O)[C@H](Cc2ccc(O)cc2)N(C)C(=O)[C@H](Cc2ccc(O)cc2)NC(=O)[C@H](CCCNC(=N)N)NC(=O)[C@H](CCCNC(=N)N)NC(=O)[C@H]([C@@H](C)CC)NC1=O [compound 119] ({CH2CO}-AV[NMeF]V[Phe(4-F)]NYYIIRRY[NMeY]C[PEG12]-NH2; thioether N-15),1 to 100
9,CC[C@H](C)[C@@H]1NC(=O)[C@H]([C@@H](C)CC)NC(=O)[C@H](Cc2ccc(O)cc2)N(C)C(=O)[C@H](Cc2ccc(O)cc2)NC(=O)[C@H](CC(N)=O)NC(=O)[C@H](Cc2c[nH]c3ccccc23)NC(=O)[C@H](C(C)C)NC(=O)[C@H](Cc2ccccc2)N(C)C(=O)[C@H](C(C)C)NC(=O)[C@H](C)NC(=O)CSC[C@@H](C(=O)NCCOCCOCCOCCOCCOCCOCCOCCOCCOCCOCCOCCOCCC(N)=O)NC(=O)[C@H](Cc2ccc(O)cc2)N(C)C(=O)[C@H](Cc2ccc(O)cc2)NC(=O)[C@H](CCCNC(=N)N)NC(=O)[C@H](CCCNC(=N)N)NC1=O [compound 120],1 to 100
10,CC[C@H](C)[C@@H]1NC(=O)[C@H](Cc2ccc(O)cc2)NC(=O)[C@H](Cc2ccc(O)cc2)NC(=O)[C@H](CC(N)=O)NC(=O)[C@H](Cc2c[nH]c3ccccc23)NC(=O)[C@H](C(C)C)NC(=O)[C@H](Cc2ccccc2)N(C)C(=O)[C@H](C(C)C)NC(=O)[C@H](C)NC(=O)CSC[C@@H](C(=O)NCCOCCOCCOCCOCCOCCOCCOCCOCCOCCOCCOCCOCCC(N)=O)NC(=O)[C@H](Cc2ccc(O)cc2)N(C)C(=O)[C@H](Cc2ccc(O)cc2)NC(=O)[C@H](CCCNC(=N)N)NC(=O)[C@H](Cc2ccc(O)cc2)NC(=O)[C@H]([C@@H](C)CC)NC1=O [compound 121] ({CH2CO}-AV[NMeF]VWNYYIIYRY[NMeY]C[PEG12]-NH2; thioether N-15),1 to 100
11,CC[C@H](C)[C@@H]1NC(=O)[C@H](Cc2ccc(O)cc2)NC(=O)[C@H](Cc2ccc(O)cc2)NC(=O)[C@H](CC(N)=O)NC(=O)[C@H](Cc2cccc(F)c2)NC(=O)[C@H](C(C)C)NC(=O)[C@H](Cc2ccccc2)N(C)C(=O)[C@H](C(C)C)NC(=O)[C@H](C)NC(=O)CSC[C@@H](C(=O)NCCOCCOCCOCCOCCOCCOCCOCCOCCOCCOCCOCCOCCC(N)=O)NC(=O)[C@H](Cc2ccc(O)cc2)N(C)C(=O)[C@H](Cc2ccc(O)cc2)NC(=O)[C@H](CCCNC(=N)N)NC(=O)[C@H](CCCNC(=N)N)NC(=O)[C@H]([C@@H](C)CC)NC1=O [compound 122],1 to 100
12,CC[C@H](C)[C@@H]1NC(=O)[C@H](Cc2ccc(O)cc2)NC(=O)[C@H](Cc2ccc(O)cc2)NC(=O)[C@H](CC(N)=O)NC(=O)[C@H](Cc2c[nH]c3ccccc23)NC(=O)[C@H](C(C)C)NC(=O)[C@H](Cc2ccccc2)N(C)C(=O)[C@H](C(C)C)NC(=O)[C@H](C)NC(=O)CSC[C@@H](C(=O)NCCOCCOCCOCCOCCOCCOCCOCCOCCOCCOCCOCCOCCC(N)=O)NC(=O)[C@H](Cc2ccc(O)cc2)N(C)C(=O)[C@H](C)NC(=O)[C@H](CCCNC(=N)N)NC(=O)[C@H](CCCNC(=N)N)NC(=O)[C@H]([C@@H](C)CC)NC1=O [compound 123],1 to 100
